Like-named read-outs stand apart in the source and are kept apart here.
How the values were obtained:
[1] = molecular target: T1, AChE (Electrophorus electricus, UniProt O42275); conditions: cited from earlier work; for IC50: read-out: IC50, AChE inhibitory activity
[2] = molecular target: T2, AChE from Electrophorus electricus (Electrophorus electricus, UniProt O42275); test: biochemical; conditions: AChE from Electrophorus electricus (commercial enzyme); Ellman; Table 1; read-out: IC50 ± SEM, AChE
T2 construct: purchased Sigma-Aldrich
T2 sequence (O42275 24-633): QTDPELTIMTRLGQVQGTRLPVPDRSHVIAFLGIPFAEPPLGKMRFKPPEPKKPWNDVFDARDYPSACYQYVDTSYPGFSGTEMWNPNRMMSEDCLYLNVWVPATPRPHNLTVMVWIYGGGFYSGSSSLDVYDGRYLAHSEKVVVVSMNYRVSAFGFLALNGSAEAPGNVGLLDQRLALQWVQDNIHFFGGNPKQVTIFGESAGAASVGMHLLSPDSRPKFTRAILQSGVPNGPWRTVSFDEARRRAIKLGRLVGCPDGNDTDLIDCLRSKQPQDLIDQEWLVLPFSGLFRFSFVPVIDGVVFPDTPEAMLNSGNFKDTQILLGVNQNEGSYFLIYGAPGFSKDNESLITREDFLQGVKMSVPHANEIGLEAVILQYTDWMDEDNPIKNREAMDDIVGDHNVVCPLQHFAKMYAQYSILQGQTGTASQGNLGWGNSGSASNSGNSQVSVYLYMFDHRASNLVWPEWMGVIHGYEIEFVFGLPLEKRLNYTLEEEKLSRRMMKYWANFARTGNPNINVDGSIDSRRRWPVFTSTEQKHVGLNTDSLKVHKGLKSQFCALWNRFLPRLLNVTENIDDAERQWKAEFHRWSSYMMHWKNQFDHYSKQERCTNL
Description: (§1) The Ellman assay was used to test acetylcholinesterase (AChE from Electrophorus electricus, and human blood) and butyrylcholinesterase (BChE from equine serum) inhibition activity. Human blood was drawn using sterilized syringes and stored in BD Vacutainer tubes with heparin as an anticoagulant at 4 °C for 1 h. To lyse the erythrocytes, 1 mL of a 1:50 dilution of the blood sample was prepared with the non-ionic detergent triton X-100. A mixture of the DTNB (125 μL), enzyme solution (25 μL), and compound solution (25 μL) was prepared and incubated at room temperature for 20 min. All the assays were under 0.1 M KH2PO4/K2HPO4 buffer, pH 8.0. The substrate was added to start the enzymatic reaction. […] All measurements were performed fivefold as triplicate. The compounds were assayed in a dilution interval of 15 to 500 μg/mL.

[3] = molecular target: T1, AChE; test: biochemical; format: biochemical; conditions: for Inhibition Type: Lineweaver-Burk and Dixon plots
Description: To investigate the inhibition mechanism of the tested compounds on AChE, a kinetic analysis was performed. The experiments were carried out using a combination of four substrate concentrations and three inhibitor concentrations with the view to obtain a double reciprocal plot (Lineweaver–Burk), in which each point is the mean of three different experiments. A parallel control with no inhibitor in the mixture allowed adjusting activities to be measured at various times.

[4] = molecular target: T3, PAS of EeAChE (Electrophorus electricus, UniProt O42275); test: Propidium iodide displacement assay; format: binding; conditions: 0.25 h, read-out: % Displacement of Propidium Iodide
T3 construct: purchased Sigma-Aldrich
T3 sequence (O42275 24-633): as above
Description: […] Propidium iodide is known for ability to specifically binding to the PAS region of AChE.
The percentage inhibition was calculated by the following expression: 100-(IFi/IF0 × 100), where IF1 and IF0 correspond to fluorescence intensities with and without the test compound, respectively. Each assay was carried out in triplicate.

[5] = molecular target: T4, butyrylcholinesterase (BChE from equine serum) (Equus caballus, UniProt P81908); test: Ellman assay, BChE inhibition; format: biochemical
T4 construct: butyrylcholinesterase (from equine serum) were purchased from Sigma-Aldrich; purchased Sigma-Aldrich; host or cells: equine serum
T4 sequence (P81908 whole entry): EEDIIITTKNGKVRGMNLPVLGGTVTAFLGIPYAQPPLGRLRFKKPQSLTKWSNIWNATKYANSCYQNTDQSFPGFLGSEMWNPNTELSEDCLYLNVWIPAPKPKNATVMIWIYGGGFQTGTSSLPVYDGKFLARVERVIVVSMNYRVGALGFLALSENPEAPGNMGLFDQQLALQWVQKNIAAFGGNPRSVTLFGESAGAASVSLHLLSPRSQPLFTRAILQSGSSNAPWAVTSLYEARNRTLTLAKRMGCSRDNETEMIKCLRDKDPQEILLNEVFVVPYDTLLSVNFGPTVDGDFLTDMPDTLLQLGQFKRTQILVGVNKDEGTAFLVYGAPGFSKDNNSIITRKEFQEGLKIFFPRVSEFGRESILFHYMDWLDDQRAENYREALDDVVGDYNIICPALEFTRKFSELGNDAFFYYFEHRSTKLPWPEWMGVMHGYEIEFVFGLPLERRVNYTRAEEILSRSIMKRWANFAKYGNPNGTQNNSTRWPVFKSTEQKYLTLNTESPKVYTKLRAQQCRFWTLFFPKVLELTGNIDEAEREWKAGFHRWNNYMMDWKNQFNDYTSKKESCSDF
Description: as §1, with “μg/mL. […] The percentage of inhibition was determined as follows: I(%)=(1−Aprobe/Ablank)100” for “μg/mL.”

[6] = molecular target: T5, AChE from human blood (Homo sapiens, UniProt P22303); test: biochemical; conditions: AChE obtained from human blood samples; Ellman; read-out: IC50 ± SEM, AChE hb
T5 construct: the enzyme extracted from human blood; from tissue; host or cells: human whole blood, erythrocytes lysed with Triton X-100
T5 sequence (P22303 32-617 isoform P22303-2 limits assumed): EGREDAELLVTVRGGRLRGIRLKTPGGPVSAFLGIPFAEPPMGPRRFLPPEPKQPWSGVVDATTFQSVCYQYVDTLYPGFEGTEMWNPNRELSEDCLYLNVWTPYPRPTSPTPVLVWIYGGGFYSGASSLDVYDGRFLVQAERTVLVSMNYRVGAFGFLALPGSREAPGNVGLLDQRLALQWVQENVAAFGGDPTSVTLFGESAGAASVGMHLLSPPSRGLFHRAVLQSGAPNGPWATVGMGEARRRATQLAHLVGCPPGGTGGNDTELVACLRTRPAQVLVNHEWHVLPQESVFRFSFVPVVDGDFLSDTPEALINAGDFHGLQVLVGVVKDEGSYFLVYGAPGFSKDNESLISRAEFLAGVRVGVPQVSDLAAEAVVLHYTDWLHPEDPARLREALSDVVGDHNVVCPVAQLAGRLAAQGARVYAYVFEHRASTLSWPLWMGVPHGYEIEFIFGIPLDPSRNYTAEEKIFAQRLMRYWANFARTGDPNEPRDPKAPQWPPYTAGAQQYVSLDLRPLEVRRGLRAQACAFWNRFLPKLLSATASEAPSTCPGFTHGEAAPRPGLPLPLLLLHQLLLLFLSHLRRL
Description: as §1, with “μg/mL. […] The percentage of inhibition was determined as follows: I(%)=(1−Aprobe/Ablank)100” for “μg/mL.”

[7] = alkaloids from Esenbeckia leiocarpa ref 40

T1 sequence (O42275 24-633): as the sequence (O42275 24-633) above

| SMILES | mode of AChE inhibition [1] | IC50 [2] [nM] | Ki [3] [nM] | Inhibition Type [3] | inhibition at 1.5 µM [4] [%] | IC50 [5] [nM] | IC50 [6] [nM] | IC50 [1, 7] [nM] | inhibition at 0.75 µM [4] [%] | inhibition at 1.5 µM ([4]; 1.5 µM compound, EeAChE) [%] | IC50 [1] [nM] | Inhibition Type ([3]; listed as compound 3) |
| --- | --- | --- | --- | --- | --- | --- | --- | --- | --- | --- | --- | --- |
| C[C@H]1[C@H](C)CC[C@]2(C(=O)O)CC[C@]3(C)C(=CC[C@@H]4[C@@]5(C)CC[C@H](O)C(C)(C)[C@@H]5CC[C@]43C)[C@H]12 [ursolic acid] | competitive/non-competitive |  |  |  |  |  |  |  |  |  |  |  |
| C=C(C)[C@@H]1CC[C@]2(C(=O)O)CC[C@]3(C)C(CCC4[C@@]5(C)C(C(=O)O)C(OC(C)=O)C(C)(C)C5CC[C@]43C)C12 (stereo partly shown) [Compound 7, 3-O-acetyl-ceanothic acid] |  | 179 ± 0.1 | 50 | partially competitive | 32.1 ± 1.3 | > 500000 | 207 ± 6 |  |  |  |  |  |
| C=C(C)[C@@H]1CC[C@]2(C(=O)O)CC[C@]3(C)C(CCC4[C@@]5(C)C(C=O)C(O)C(C)(C)C5CC[C@]43C)C12 (stereo partly shown) [Compound 2, Zizyberanalic acid] |  | 150 ± 0.9 | 28 | mixed competitive mode inhibition | 23.2 ± 0.8 | > 500000 | 173 ± 6 |  |  |  |  |  |
| CCCc1cc(=O)c2ccccc2n1C [leptomerine] |  |  |  |  |  |  |  | 2500 |  |  |  |  |
| C=C(C)[C@@H]1CC[C@]2(C(=O)O)CC[C@]3(C)[C@H](CC[C@@H]4[C@@]5(C)[C@H](CO)[C@@H](O)C(C)(C)[C@@H]5CC[C@]43C)[C@@H]12 [Compound 5, Ceanothanolic acid] |  | 155 ± 0.1 | 56 | mixed competitive mode inhibition |  | > 500000 | 181 ± 0.7 |  | 14.5 ± 0.3 | 19.3 ± 1.5 |  |  |
| C=C(C)[C@@H]1CC[C@]2(C(=O)O)CC[C@]3(C)C(CCC4[C@@]5(C)C(C(=O)O)C(=O)C(C)(C)C5CC[C@]43C)C12 (stereo partly shown) [Compound 6, 3-oxo-ceanothic acid] |  | 172 ± 1.2 | 47 | mixed competitive mode inhibition |  | > 500000 | 199 ± 9 |  | 24.3 ± 0.7 | 40.5 ± 1.5 |  |  |
| O=c1c(O)c(-c2ccccc2)oc2cc(O)cc(O)c12 [galangin] |  |  |  |  |  |  |  |  |  |  | 120000 |  |
| C=C(C)[C@@H]1CC[C@]2(C(=O)O)CC[C@]3(C)[C@H](CC[C@@H]4[C@@]5(C)[C@@H](C(=O)O)[C@H](O)C(C)(C)[C@@H]5CC[C@]43C)[C@@H]12 [Compound 3, Ceanothic acid] |  | 125 ± 0.4 | 55 | partially competitive |  | > 500000 | 146 ± 3 |  | 34.2 ± 0.6 | 45.6 ± 1.1 |  | competitive and reversible |
| C=C(C)[C@@H]1CC[C@]2(C(=O)O)CC[C@]3(C(=O)O)[C@H](CC[C@@H]4[C@@]5(C)C=CC(C)(C)[C@@H]5CC[C@]43C)[C@@H]12 [Compound 4, Ceanothenic acid] |  | 188 ± 0.5 | 22 | mixed competitive mode inhibition |  | > 500000 | 219 ± 4 |  | 20.1 ± 1 | 26.7 ± 1.3 |  |  |
| COc1cc2nc3occc3c(OC)c2cc1OC [kokusaginine] |  |  |  |  |  |  |  | 46000 |  |  |  |  |
| C=C(C)[C@@H]1CC[C@]2(C(=O)O)CC[C@]3(C)C(CCC4[C@@]5(C)C(C=O)=CC(C)(C)C5CC[C@]43C)C12 (stereo partly shown) [Compound 1, Zizyberenalic acid] |  | 184 ± 0.7 | 46 | mixed competitive mode inhibition |  | > 500000 | 215 ± 5 |  | 19.7 ± 0.8 | 26.3 ± 1.3 |  |  |
